Measured values: ChEMBL document CHEMBL2074085, “P-glycoprotein (P-gp/MDR1)-mediated efflux of sex-steroid hormones and modulation of P-gp expression in vitro” (Pharm Res, 2004)

Each compound was assayed against ATP-dependent translocase ABCB1 (Homo sapiens, UniProt P08183) (assay: TP_TRANSPORTER: transepithelial transport in MDR1-expressing MDCK cells). Conditions: dog.
Chain of ATP-dependent translocase ABCB1 (P08183 whole entry): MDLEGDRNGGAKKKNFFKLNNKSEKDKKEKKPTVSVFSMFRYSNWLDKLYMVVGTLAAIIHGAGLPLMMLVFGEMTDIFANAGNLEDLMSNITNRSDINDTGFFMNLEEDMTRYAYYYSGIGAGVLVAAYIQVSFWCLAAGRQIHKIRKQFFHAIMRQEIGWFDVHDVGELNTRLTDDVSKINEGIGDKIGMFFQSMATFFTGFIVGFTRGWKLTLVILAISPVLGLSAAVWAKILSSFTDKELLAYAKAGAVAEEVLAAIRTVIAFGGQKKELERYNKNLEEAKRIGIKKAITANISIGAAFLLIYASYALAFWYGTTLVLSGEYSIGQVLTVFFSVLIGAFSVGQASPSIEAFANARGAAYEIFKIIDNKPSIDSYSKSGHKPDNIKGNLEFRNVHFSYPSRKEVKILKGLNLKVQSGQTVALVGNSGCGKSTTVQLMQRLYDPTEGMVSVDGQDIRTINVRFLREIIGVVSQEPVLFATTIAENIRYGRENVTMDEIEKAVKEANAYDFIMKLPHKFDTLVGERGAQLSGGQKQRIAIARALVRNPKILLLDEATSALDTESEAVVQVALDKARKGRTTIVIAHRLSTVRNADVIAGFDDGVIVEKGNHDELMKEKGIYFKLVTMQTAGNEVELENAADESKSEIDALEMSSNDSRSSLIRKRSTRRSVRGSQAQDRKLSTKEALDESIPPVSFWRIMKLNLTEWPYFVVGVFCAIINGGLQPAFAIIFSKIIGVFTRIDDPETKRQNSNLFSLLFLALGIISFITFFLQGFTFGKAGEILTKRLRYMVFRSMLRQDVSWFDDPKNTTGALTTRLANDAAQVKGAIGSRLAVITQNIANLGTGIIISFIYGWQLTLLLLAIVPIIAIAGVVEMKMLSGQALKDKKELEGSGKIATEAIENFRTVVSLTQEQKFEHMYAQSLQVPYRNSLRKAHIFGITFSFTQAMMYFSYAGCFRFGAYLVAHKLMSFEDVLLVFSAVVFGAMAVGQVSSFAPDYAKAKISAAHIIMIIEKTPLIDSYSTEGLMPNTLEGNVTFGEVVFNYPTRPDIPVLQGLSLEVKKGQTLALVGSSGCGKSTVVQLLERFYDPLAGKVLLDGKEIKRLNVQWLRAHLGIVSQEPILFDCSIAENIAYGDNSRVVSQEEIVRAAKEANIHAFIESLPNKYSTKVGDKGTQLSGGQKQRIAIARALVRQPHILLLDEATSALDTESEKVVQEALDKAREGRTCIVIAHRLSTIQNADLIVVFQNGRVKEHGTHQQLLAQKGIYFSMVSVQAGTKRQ
Type: functional, cell-based
For `C[C@]12CC[C@@H]3c4ccc(O)cc4CC[C@H]3[C@@H]1CCC2=O` [ESTRONE], the Activity was “substrate [+]”.
In the case of `C#C[C@]1(O)CC[C@H]2[C@@H]3CCc4cc(O)ccc4[C@H]3CC[C@@]21C` [ETHINYL ESTRADIOL], the Activity is reported as “substrate [+]”.
In the case of `C#C[C@]1(O)CC[C@H]2[C@@H]3CCC4=CC(=O)CC[C@@H]4[C@H]3CC[C@@]21C` [NORETHINDRONE], the Activity is reported as “is not a substrate [-]”.
`CC(=O)[C@H]1CC[C@H]2[C@@H]3CCC4=CC(=O)CC[C@]4(C)[C@H]3CC[C@]12C` [PROGESTERONE] was tested, and the Activity was “is not a substrate [-]”.
In the case of `C[C@]12CC[C@@H]3c4ccc(O)cc4CC[C@H]3[C@@H]1C[C@@H](O)[C@@H]2O` [ESTRIOL], the Activity is reported as “substrate [+]”.
In the case of `C[C@]12CC[C@@H]3c4ccc(O)cc4CC[C@H]3[C@@H]1CC[C@@H]2O` [ESTRADIOL], the Activity is reported as “is not a substrate [-]”.
